Results reported in US11713293B2, “Substituted biaryl sulfonamides and the use thereof” (NovoMedix, LLC, priority 2012, dated 2023).
Read-outs that look alike come from different tables or passages of the source.

How the values were obtained:
cyclin D3 = assay: Cyclin D3 levels by Western blot in MDA-MB-231 cells; assay type: cell-based; conditions: 10 μM, at 18 and 24 h
Description: Cyclin D is one of the most commonly overexpressed genes in breast cancer and high levels correlate with poor prognosis. Furthermore, cyclin D overexpression is correlated with triple-negative basal-like tumors. In one embodiment, the effects of a compound provided herein on cyclin D overexpression were evaluated. […] The density ratio of the cyclin D3 band to respective beta-actin band was determined by Western blot analysis and normalized to DMSO (100%).

[1] = Plasma and tumor concentrations at sacrifice in MDA-MB-231 xenograft mice; assay type: in vivo, Mouse/nude
Description: At study termination, mice still undergoing treatment were given a final dose of compound and sacrificed 2 h later. Average concentrations of compounds in plasma and tumor were determined.

[2] = test system: m7GpppN-capped luciferase mRNA reporter; assay: In vitro HeLa cell extract translation system, translation inhibition; assay type: biochemical; conditions: at 10 μM
Description: In one embodiment, the compounds provided herein were assayed for translation inhibition activity using an in vitro HeLa cell extract translation system with an m7GpppN-capped luciferase mRNA reporter.

[3] = PK study and oral bioavailability, mouse; assay type: in vivo; conditions: plasma 0 to 6 h
[4] = test system: triple negative breast cancer cell line MDA-MB-231; assay: Cell-based IC50 assay, adherent cells, MDA-MB-231; conditions: Homo sapiens, 72 hours, CellTiter 96 Aqueous One
Description: (§1) In one embodiment, the IC50s of the compounds provided herein were determined in cell-based assays using adherent cells. In one embodiment, the activity of the compounds provided herein were determined in a cell-based assay using the triple negative breast cancer cell line MDA-MB-468. In one embodiment, the activity of the compounds provided herein were determined in a cell-based assay using the triple negative breast cancer cell line MDA-MB-231. In one embodiment, the activity of the compounds provided herein were determined in a cell-based assay using the triple negative breast cancer cell line 4T1.
(§2) In one embodiment, the cell-based assay may be carried out as provided herein. On day 0, cells were seeded at 20,000 cells per well in 100 μL of media into individual wells of a 96-well tissue culture plate. The next day, compounds were diluted to twice the desired final concentration and added in 100 μL of media for a final volume of 200 μL. Standard solutions for each compound were prepared at 1000× concentration in DMSO. The highest concentration was […]. Serial 1:1 dilutions were made from there for a 6- or 9-point curve (e.g., 20 mM, 10 mM, 5 mM, etc). Compounds were then diluted 1:500 in media, and 100 μL of the resulting solution was added to each well for a final dilution of 1:1000. Each concentration of compound was tested in triplicate. Cells were incubated at 37° C. with 5% CO2. After 72 hours, 20 μL of CellTiter 96 Aqueous One Solution Cell Proliferation Assay (Promega) was added to each well. Cells were placed back in the incubator, and the absorbance at 490 nm was read after 2-3 hours. The concentration of compound that decreased the number of metabolically active cells by 50% was determined and reported as the IC50. “Percent Viability” was determined by subtracting the average background value (media only) and expressed as a ratio to the average value obtained from cells treated with only DMSO.

[5] = test system: purified luciferase protein; assay: Inhibition of purified luciferase protein (specificity control); assay type: biochemical; conditions: at 100 μM
[6] = test system: triple negative breast cancer cell line 4T1; assay: Cell-based IC50 assay, adherent cells, 4T1; conditions: 72 hours, CellTiter 96 Aqueous One
Description: as §1
In one embodiment, the cell-based assay may be carried out as provided herein. On day 0, cells were seeded at 20,000 cells per well in 100 μL of media into individual wells of a 96-well tissue culture plate. The next day, compounds were diluted to twice the desired final concentration and added in 100 μL of media for a final volume of 200 μL. Standard solutions for each compound were prepared at 1000× concentration in DMSO. The highest concentration was 30 mM. […] Cells were placed back in the incubator, and the absorbance at 490 nm was read after 2-3 hours. […] “Percent Viability” was determined by subtracting the average background value (media only) and expressed as a ratio to the average value obtained from cells treated with only DMSO.

[7] = test system: triple negative breast cancer cell line MDA-MB-468; assay: Cell-based IC50 assay, adherent cells, MDA-MB-468; conditions: Homo sapiens, 72 hours, CellTiter 96 Aqueous One, metabolically active cells decreased by 50%
Description: as §1, §2
The IC50s of the compounds provided herein and some reference compounds were determined in cell-based assay using triple negative breast cancer cell line MDA-MB-468.

MDA-MB-231 breast tumors = assay: Tumor growth inhibition in MDA-MB-231 xenograft model for breast cancer; assay type: in vivo, Mouse/nude
Description: In one embodiment, the effects of a compound provided herein on tumor growth in a mouse animal model were evaluated. In specific embodiments, the mouse animal model was the MDA-MB-231 xenograft model for breast cancer. Studies were performed to evaluate the effect of a compound provided herein on the growth of MDA-MB-231 breast tumors in mice. The test system that was used is summarized below:
Animals were housed 10 mice per cage in micro-isolators, with sterile corn cob bedding, food, and water. Mice were acclimated for 3 days and given food and tap water ad libitum. Animals were examined prior to initiation of the study to assure adequate health and suitability. […] During the course of the study, 12-hour light/12-hour dark cycle were maintained. A nominal temperature range of 20-23° C. with a relative humidity between 30% and 70% was maintained. LabDiet 5053-certified PicoLab Rodent Diet and sterile water were provided ad libitum during the study.
Exemplary Protocol: Ten mice per group were inoculated s.c. on the left flank with 5×10^6 MDA-MB-231 cells. When tumors reached a mean volume of approximately 100 mm^3, animals began treatment with a compound provided herein (See Table 5). […] Tumors were evaluated every Monday, Wednesday and Friday, body weights and condition were evaluated on a daily basis. […]
Tumor Measurement: Tumors were monitored daily. If, during a daily evaluation, an animal's tumor appeared to have exceeded 1500 mm^3, the tumor was measured; and animals with tumors greater than 1500 mm^3 and/or that had become necrotic and/or hindered movement were euthanized. Tumors were measured twice weekly by measuring each tumor in 2 dimensions, along the largest dimension (length, L) and perpendicular to this dimension (width, W). Tumor weights were calculated using the standard formula: (L×W^2)/2. The mean tumor weight and standard error of the mean were calculated for each group at each time point. […]
Animal Weight: All animals were weighed twice weekly throughout the study. Group weight change was expressed as a daily group mean weight. […]

[8] = test system: highly structured 5′-UTR HB3 (triple stem loop) reporter; assay: Translation of mRNAs with highly structured 5′-UTR versus unstructured
Description: Many proteins that drive cancer growth and survival (including the cyclins, c-myc, and Pim-1) have secondary structures in the 5′-UTR of their mRNA that limit the rate of translational initiation. In one embodiment, the effects of a compound provided herein on translation of such mRNAs relative to mRNAs without highly structured 5′-UTRs were evaluated.

- levels in plasma and tumor samples after discontinued treatment ([1]; mice that discontinued treatment on Day 31, at study termination): detectable levels
- concentration at 14 days ([1]; nude, mouse, plasma, intraperitoneal, treated until the end: No, none after day 31, sacrificed day 45, read-out: Ave. Plasma Conc.): 50 ± 20 nM
- concentration at 2 h ([1]; nude, mouse, plasma, intraperitoneal, treated until the end: Yes, 50/25 mg/kg, sacrificed day 45, 2 h after final dose, read-out: Ave. Plasma Conc.): 2330 ± 270 nM
- Ave. Tumor Conc. ([1]; treated until the end: No, none after day 31, sacrificed day 45): 0.07 ± 0.04 μM/g of tumor tissue
- Ave. Tumor Conc. ([1]; treated until the end: Yes, 50/25 mg/kg, sacrificed day 45, 2 h after final dose): 1.25 ± 0.09 μM/g of tumor tissue
- C0 ([3]; IV 5 mg/kg, read-out: IV Administration (5 mg/kg) C0): 54600 ng/mL
- half-life ([3]; IV 5 mg/kg, read-out: IV Administration (5 mg/kg) T½ (converted)): 2.1 h
- C0 ([3]; PO 25 mg/kg, read-out: PO Administration (25 mg/kg) C0): 5150 ng/mL
- half-life ([3]; PO 25 mg/kg, read-out: PO Administration (25 mg/kg) T½ (converted)): 1.5 h
- IC50 [4]: 13 µM
- inhibition of purified luciferase protein [5]: no inhibition
- IC50 [6]: 15 µM
- IC50 [7]: 5 µM
Compound: CC(C)c1cc(C(C)C)c(S(=O)(=O)Nc2cc(C(F)(F)F)cc(C(F)(F)F)c2)c(C(C)C)c1 [Compound 1, N-[3,5-Bis(trifluoromethyl)phenyl]-2,4,6-triisopropyl-benzenesulfonamide]
- cyclin D3 levels (density ratio to beta-actin, normalized to DMSO) (cyclin D3): decrease in cyclin D3 levels
- inhibition of luciferase activity vs. DMSO [2]: 97.4%
- mean tumor volume at Day 31 (MDA-MB-231 breast tumors; qd IP 50 mg/kg, reduced to 25 mg/kg on day 7, vehicle group 898±260 mm^3): 276±119 mm^3
- mean weight gain (MDA-MB-231 breast tumors; qd IP 50/25 mg/kg, Days 1 to 31, vehicle group 4.2%): 0.1%
- tumor growth after drug withdrawal (MDA-MB-231 breast tumors; within 10 days of withdrawal, from day 32): tumor growth did not resume
- inhibition of highly structured 5′-UTR reporter relative to mRNAs without highly structured 5′-UTRs [8]: preferential inhibition
